Three compounds from article PMC4457528, “Identification of Novel Small Molecule Inhibitors of Oncogenic RET Kinase” (PLoS ONE, 2015) can be followed below.

Like-named read-outs stand apart in the source and are kept apart here. Where only a bound is given, the exact number is not on record here.

Test in all cases: KinomeScan kinase panel, single concentration 10 µM
Assay type in all cases: binding

Test [1] concerns the target T1, KinomeScan kinase panel (Homo sapiens, UniProt Q8N5S9).
T1 construct: purchased DiscoveRx (KinomeScan)
The following applies: CAMKK1, 10 µM; read-out: score (%).

Test [2] addresses T2, KinomeScan kinase panel (Homo sapiens, UniProt Q9H2K8).
T2 construct: purchased DiscoveRx (KinomeScan)
T2 sequence (Q9H2K8 1-898): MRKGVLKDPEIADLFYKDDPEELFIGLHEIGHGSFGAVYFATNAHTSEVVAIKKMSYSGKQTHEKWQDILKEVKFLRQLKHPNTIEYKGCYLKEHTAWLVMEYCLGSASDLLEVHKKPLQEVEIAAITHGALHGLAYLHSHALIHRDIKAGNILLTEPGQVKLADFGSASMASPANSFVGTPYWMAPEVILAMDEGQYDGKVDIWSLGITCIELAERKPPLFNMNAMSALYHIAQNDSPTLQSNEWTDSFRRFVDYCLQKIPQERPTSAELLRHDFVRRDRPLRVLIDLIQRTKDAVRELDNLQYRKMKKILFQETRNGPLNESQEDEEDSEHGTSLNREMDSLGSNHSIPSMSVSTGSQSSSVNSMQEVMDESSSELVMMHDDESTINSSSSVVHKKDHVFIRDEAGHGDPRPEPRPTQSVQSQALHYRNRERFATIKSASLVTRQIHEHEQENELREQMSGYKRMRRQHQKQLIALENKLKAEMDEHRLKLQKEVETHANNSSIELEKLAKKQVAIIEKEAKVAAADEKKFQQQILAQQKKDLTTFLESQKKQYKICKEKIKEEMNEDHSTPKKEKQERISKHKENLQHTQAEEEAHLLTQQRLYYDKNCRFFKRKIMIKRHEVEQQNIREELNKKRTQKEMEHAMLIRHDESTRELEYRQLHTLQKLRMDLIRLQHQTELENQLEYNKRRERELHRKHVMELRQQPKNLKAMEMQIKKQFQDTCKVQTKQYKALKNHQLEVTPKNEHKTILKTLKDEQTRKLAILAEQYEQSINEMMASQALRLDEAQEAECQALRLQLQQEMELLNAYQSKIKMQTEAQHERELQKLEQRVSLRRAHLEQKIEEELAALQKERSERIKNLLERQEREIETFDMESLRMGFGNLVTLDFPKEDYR
The following applies: read-out: score (%).

In test [3] the target is T3, KinomeScan kinase panel (Homo sapiens, UniProt P06239).
T3 construct: purchased DiscoveRx (KinomeScan)
T3 sequence (P06239 whole entry): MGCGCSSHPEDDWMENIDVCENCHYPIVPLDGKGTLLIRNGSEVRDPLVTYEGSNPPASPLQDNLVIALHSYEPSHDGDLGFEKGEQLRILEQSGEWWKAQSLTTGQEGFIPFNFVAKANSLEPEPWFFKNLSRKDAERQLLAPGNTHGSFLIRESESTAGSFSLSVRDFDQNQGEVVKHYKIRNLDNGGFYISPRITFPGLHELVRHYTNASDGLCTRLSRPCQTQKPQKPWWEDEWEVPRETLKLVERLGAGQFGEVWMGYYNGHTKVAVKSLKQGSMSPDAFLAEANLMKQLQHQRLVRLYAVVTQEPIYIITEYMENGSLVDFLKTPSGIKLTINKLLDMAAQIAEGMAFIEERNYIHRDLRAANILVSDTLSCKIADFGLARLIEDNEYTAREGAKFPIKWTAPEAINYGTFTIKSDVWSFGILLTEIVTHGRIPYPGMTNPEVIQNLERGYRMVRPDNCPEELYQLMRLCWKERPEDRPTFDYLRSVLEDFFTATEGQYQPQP
The conditions noted are these: LCK, 10 µM; read-out: score (%).

Test [4] has as its target T4, KinomeScan kinase panel (Homo sapiens, UniProt P51451).
T4 construct: purchased DiscoveRx (KinomeScan)
The following applies: BLK, 10 µM; read-out: score (%).

Test [5] addresses T5, KinomeScan kinase panel (Homo sapiens, UniProt O15264).
T5 construct: purchased DiscoveRx (KinomeScan)
T5 sequence (O15264 1-365): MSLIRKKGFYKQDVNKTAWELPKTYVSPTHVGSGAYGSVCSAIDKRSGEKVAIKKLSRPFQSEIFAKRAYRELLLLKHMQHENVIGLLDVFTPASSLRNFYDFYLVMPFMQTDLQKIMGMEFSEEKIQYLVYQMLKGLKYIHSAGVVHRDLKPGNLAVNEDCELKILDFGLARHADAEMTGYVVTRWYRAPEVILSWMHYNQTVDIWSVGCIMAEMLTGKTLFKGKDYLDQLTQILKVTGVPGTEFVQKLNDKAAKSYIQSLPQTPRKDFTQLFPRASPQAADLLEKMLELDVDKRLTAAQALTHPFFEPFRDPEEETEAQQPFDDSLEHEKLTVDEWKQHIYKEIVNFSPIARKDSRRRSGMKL
The conditions noted are these: p38-delta, 10 µM; read-out: score (%).

Test [6] concerns the target T6, KinomeScan kinase panel (Homo sapiens, UniProt Q16659).
T6 construct: purchased DiscoveRx (KinomeScan)
The following applies: ERK3, 10 µM; read-out: score (%).

The target of test [7] is T7, KinomeScan kinase panel (Homo sapiens, UniProt Q59H18).
T7 construct: purchased DiscoveRx (KinomeScan)
T7 sequence (Q59H18 1-835): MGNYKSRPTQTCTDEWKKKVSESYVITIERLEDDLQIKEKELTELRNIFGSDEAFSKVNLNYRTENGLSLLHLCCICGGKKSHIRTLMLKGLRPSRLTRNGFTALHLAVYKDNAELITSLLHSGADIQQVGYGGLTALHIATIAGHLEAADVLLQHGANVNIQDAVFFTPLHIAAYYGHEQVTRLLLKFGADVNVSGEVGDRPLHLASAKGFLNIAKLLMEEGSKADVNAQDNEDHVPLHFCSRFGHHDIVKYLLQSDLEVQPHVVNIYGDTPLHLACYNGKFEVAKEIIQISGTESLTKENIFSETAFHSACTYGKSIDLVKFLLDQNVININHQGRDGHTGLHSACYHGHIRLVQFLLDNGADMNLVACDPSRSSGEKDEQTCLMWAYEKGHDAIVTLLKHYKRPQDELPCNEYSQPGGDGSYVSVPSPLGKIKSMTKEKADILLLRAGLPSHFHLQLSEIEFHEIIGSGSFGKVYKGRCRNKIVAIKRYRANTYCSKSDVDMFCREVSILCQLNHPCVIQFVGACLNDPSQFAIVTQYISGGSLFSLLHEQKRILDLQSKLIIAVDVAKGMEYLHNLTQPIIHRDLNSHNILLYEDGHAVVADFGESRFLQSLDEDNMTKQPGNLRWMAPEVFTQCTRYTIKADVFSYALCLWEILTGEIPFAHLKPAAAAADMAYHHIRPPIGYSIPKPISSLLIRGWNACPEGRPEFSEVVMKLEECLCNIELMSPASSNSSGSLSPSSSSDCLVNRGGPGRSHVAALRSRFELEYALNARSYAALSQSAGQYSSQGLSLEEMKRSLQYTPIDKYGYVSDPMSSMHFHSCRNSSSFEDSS
The following applies: 10 µM, read-out: score (%).

Test [8] deals with T8, KinomeScan kinase panel (Homo sapiens, UniProt P22694).
T8 construct: purchased DiscoveRx (KinomeScan)
The following applies: PKAC-beta, 10 µM; read-out: score (%).

In test [9] the target is T9, KinomeScan kinase panel (Homo sapiens, UniProt Q9UQM7).
T9 construct: purchased DiscoveRx (KinomeScan)
T9 sequence (Q9UQM7 whole entry): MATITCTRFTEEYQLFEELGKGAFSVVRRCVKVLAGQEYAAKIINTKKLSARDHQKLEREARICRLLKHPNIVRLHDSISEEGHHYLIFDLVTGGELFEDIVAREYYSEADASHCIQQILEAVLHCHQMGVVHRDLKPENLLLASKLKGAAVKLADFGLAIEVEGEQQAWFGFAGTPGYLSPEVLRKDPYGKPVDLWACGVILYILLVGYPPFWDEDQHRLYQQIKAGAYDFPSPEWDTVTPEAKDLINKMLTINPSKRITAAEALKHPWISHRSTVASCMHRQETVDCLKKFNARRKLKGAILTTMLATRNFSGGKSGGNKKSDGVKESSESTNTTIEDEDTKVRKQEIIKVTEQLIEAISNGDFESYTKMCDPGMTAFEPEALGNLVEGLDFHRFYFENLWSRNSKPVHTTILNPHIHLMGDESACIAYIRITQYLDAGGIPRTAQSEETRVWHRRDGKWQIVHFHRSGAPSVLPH
The following applies: CAMK2A, 10 µM; read-out: score (%).

Test [10] deals with T10, KinomeScan kinase panel (Homo sapiens, UniProt P00519, H396P).
T10 construct: purchased DiscoveRx (KinomeScan)
The following applies: 10 µM, read-out: score (%).

T1 sequence (Q8N5S9 whole entry): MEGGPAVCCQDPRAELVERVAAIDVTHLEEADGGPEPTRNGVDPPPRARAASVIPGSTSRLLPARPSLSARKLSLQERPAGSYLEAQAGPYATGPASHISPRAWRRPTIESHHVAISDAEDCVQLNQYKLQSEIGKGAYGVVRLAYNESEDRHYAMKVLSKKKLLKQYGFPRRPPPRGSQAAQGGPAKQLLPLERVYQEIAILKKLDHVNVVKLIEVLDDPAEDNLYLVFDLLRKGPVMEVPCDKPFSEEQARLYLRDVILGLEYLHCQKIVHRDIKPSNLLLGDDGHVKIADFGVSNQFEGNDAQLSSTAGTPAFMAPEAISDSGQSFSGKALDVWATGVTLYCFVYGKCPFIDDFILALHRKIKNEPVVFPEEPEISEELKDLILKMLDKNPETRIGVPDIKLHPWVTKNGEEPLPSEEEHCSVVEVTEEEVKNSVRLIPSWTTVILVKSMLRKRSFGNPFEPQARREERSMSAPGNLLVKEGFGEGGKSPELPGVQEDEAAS
T4 sequence (P51451 whole entry): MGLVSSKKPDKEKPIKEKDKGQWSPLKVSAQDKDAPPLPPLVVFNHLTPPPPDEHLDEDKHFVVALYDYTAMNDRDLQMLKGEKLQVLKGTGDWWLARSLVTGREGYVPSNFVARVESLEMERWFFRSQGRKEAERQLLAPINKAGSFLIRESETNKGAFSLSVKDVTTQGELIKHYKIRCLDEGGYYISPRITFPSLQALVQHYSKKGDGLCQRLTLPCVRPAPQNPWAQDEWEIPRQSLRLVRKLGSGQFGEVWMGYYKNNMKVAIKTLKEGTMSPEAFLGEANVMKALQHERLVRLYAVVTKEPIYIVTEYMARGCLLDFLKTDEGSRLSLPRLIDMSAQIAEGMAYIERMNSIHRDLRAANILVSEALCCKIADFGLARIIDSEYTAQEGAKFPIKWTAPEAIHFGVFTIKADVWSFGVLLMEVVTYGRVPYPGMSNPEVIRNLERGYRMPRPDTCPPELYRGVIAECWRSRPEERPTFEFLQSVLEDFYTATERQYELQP
T6 sequence (Q16659 whole entry): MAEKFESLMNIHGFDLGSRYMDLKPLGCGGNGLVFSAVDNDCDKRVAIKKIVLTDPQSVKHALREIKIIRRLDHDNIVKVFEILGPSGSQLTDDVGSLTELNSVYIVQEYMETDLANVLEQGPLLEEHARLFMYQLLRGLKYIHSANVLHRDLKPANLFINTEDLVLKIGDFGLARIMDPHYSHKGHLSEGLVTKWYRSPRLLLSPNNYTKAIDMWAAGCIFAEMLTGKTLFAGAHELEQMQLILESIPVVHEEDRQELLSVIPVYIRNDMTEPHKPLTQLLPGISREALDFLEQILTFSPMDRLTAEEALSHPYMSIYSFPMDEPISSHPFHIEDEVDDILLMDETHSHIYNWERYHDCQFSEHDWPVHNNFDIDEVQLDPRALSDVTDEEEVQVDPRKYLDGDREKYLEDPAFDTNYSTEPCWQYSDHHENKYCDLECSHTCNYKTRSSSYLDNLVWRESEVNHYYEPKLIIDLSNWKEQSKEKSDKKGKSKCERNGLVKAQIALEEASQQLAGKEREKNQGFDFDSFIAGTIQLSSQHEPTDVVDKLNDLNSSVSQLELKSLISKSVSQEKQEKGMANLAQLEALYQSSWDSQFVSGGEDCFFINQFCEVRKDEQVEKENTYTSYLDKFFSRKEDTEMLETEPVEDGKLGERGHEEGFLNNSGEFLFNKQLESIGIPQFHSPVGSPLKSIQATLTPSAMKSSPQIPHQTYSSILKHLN

For the compound `CCN1CCN(Cc2ccc(NC(=O)c3ccc(C)c(NC(=O)c4cncc(-c5cccs5)c4)c3)cc2C(F)(F)F)CC1` [ALW-II-41-27], the remaining binding at 10 µM at KinomeScan kinase panel [1] was 33%; on KinomeScan kinase panel [2] (kinase TAOK3, 10 µM) it was 2.8%; on KinomeScan kinase panel [3], 0.2%; on KinomeScan kinase panel [4], 0.1%; at KinomeScan kinase panel [5] it was 29%; at KinomeScan kinase panel [6] it was more than 30%. Also, the remaining binding at 10 µM was 3.8% at KinomeScan kinase panel [7] (kinase TNNI3K), 8% on KinomeScan kinase panel [8], more than 30% on KinomeScan kinase panel [9] and 0.5% at KinomeScan kinase panel [10] (ABL1(H396P)).
For the compound `CCN1CCN(Cc2ccc(NC(=O)c3ccc(C)c(/C=C/c4cnc5[nH]ccc5c4Cl)c3)cc2C(F)(F)F)CC1` [HG-6-63-01, (E)-3-(2-(4-chloro-1H-pyrrolo[2,3-b]pyridin-5-yl)vinyl)-N-(4-((4-ethylpiperazin-1-yl)methyl)-3-(trifluoromethyl)phenyl)-4-methylbenzamide], the remaining binding at 10 µM at KinomeScan kinase panel [1] was more than 30%; on KinomeScan kinase panel [2] (TAOK3, 10 µM) it was 0.1%; on KinomeScan kinase panel [3] it was 0.1%; on KinomeScan kinase panel [4], 0.2%; at KinomeScan kinase panel [5] it was more than 30%; at KinomeScan kinase panel [6], more than 30%. Besides, the remaining binding at 10 µM was 0.9% at KinomeScan kinase panel [7] (TNNI3K), more than 30% on KinomeScan kinase panel [8], more than 30% at KinomeScan kinase panel [9] and 0.2% on KinomeScan kinase panel [10] (ABL1(H396P)).
For the compound `CCN1CCN(Cc2ccc(NC(=O)c3ccc(C)c(C#Cc4cccnc4)c3)cc2C(F)(F)F)CC1` [XMD15-44], the remaining binding at 10 µM at KinomeScan kinase panel [1] is more than 30%; at KinomeScan kinase panel [2] (kinase TAOK3, 10 µM) it was 0%; on KinomeScan kinase panel [3], 0.05%; on KinomeScan kinase panel [4], 0%; at KinomeScan kinase panel [5] it was 2.5%; at KinomeScan kinase panel [6] it was more than 30%. The remaining binding at 10 µM on KinomeScan kinase panel [7] (kinase TNNI3K) was 0%; on KinomeScan kinase panel [8] it was 4.1%; at KinomeScan kinase panel [9] it was more than 30%; at KinomeScan kinase panel [10] (ABL1(H396P)-nonphosphorylated) it was 0%; on KinomeScan kinase panel [10] (ABL1(H396P)-phosphorylated) it was 0%.
